Test results taken from publication PMC3541007 (ChemMedChem, 2009).
≈ marks a conversion by molar mass, not a printed value. Where “and” joins values, the source holds several entries; their conditions need not be identical. Identical values can stand only once. Like-named read-outs stand apart in the source and are kept apart here.

Assays:
[1] = tested on: M. tuberculosis H37Rv; assay type: cell-based; conditions: wild-type, INH-sensitive, four weeks
[2] = tested on: M. tuberculosis H37Rv PmabAinhA (C-15T); assay type: cell-based; conditions: for MIC H37Rv PmabAinhA (C-15T): four weeks
[3] = tested on: M. tuberculosis H37Rv ΔkatG; assay type: cell-based, Mycobacterium tuberculosis
[4] = target: InhA; conditions: read-out: Ki against InhA; cited from earlier work
[5] = tested on: H37Rv; conditions: cited from earlier work
[6] = tested on: InhA; conditions: read-out: InhA IC50; cited from earlier work

5-n-butyltriclosan [Compound 10]
MIC H37Rv [1]: 9.4 µg/mL
MIC H37Rv ([1]; value in parentheses): 30 µM
MIC H37Rv PmabAinhA (C-15T) [2]: 37 µg/mL
MIC H37Rv PmabAinhA (C-15T) ([2]; value in parentheses): 120 µM
MIC H37Rv ΔkatG [3]: 19 (60) µg/ml and 19 (60) µM

NNC(=O)c1ccncc1 [INH, isoniazid]
fold loss in potency versus InhA(C-15T) strain compared to wild-type ([2]; MIC ratio vs wild-type strain): 13 fold
MIC H37Rv ΔkatG [3]: >200 (>1400) µg/ml and >200 (>1400) µM

NC(=O)C1=CN([C@@H]2O[C@H](COP(=O)(O)OP(=O)(O)OC[C@H]3O[C@@H](n4cnc5c(N)ncnc54)[C@H](O)[C@@H]3O)[C@@H](O)[C@H]2O)C=C[C@@H]1C(=O)c1ccncc1 [INH-NAD]
Ki [4]: 5 nM

CCCCCCCCc1ccc(Oc2ccccc2)c(O)c1 [Sullivan’s n-octyl analog]
MIC vs. H37Rv ([5]; des-chloro analogs of Sullivan): 6.5 µM (≈ 1.94 µg/mL)
IC50 [6]: 5 nM

CCc1cc(C(N)=S)ccn1 [ethionamide]
MIC [5]: 18 µM (≈ 2.99 µg/mL)
